Source: publication PMC7753147, “High-throughput determination of protein affinities using unmodified peptide libraries in nanomolar scale” (iScience, 2020)

Tests used:
gephE = test: µSPOT peptide microarray binding assay with recombinant gephE
native geph = test: µSPOT peptide microarray binding assay with native geph from mouse brain lysate
FL-geph = test: µSPOT peptide microarray binding assay with full-length geph
[1] = µSPOT peptide microarray, GlyRβ full positional scan, recombinant gephE, intensity normalised to wild-type sequence DLRSNDFSIVGSLPR (=1)
[2] = µSPOT peptide microarray, GlyRβ full positional scan, native geph from mouse brain lysate, intensity normalised to wild-type sequence DLRSNDFSIVGSLPR (=1)
[3] = µSPOT peptide microarray, GlyRβ full positional scan, intensity normalised to wild-type sequence DLRSNDFSIVGSLPR (=1)
[4] = µSPOT full positional scan of GlyRβ 15-mer DLRSNDFSIVGSLPR, intensity normalised to wild-type sequence (= 1)
[5] = µSPOT full positional scan of GlyRβ 15-mer DLRSNDFSIVGSLPR, native geph, intensity normalised to wild-type sequence (= 1)

Row | gephE Binding Intensity [norm.] (gephE; [1]) | Native geph Binding Intensity [norm.] (native geph; [2]) | Fl-geph Binding Intensity [norm.] (FL-geph; [3]) | gephE Binding Intensity [norm.] (gephE; [4]) | Native geph Binding Intensity [norm.] (native geph; [5]) | Fl-geph Binding Intensity [norm.] (FL-geph; [4]) | Sequence
1 | 0.47 norm. | 0.13 norm. | 0.58 norm. |  |  |  | DLRSNDFSKVGSLPR [GlyRβ_Full_Positional_Scan_174, GlyR β 414-428 variant I422K]
2 | 0.41 norm. | 0.31 norm. | 0.51 norm. |  |  |  | DLRSNDFSIPGSLPR [GlyRβ_Full_Positional_Scan_185, GlyR β 414-428 variant V423P]
3 | 0.89 norm. | 0.58 norm. | 0.85 norm. |  |  |  | DLRSNPFSIVGSLPR [GlyRβ_Full_Positional_Scan_105]
4 | 0.92 norm. | 0.55 norm. | 0.81 norm. |  |  |  | DLRSIDFSIVGSLPR [GlyRβ_Full_Positional_Scan_083]
5 | 0.57 norm. | 0.32 norm. | 0.53 norm. |  |  |  | DLRSNDFSQVGSLPR [GlyRβ_Full_Positional_Scan_180, GlyR β 414-428 variant I422Q]
6 | 0.4 norm. | 0.17 norm. | 0.79 norm. |  |  |  | DLRSNDFSINGSLPR [GlyRβ_Full_Positional_Scan_199, GlyR β 414-428 variant V423N]
7 | 0.9 norm. | 0.88 norm. | 0.89 norm. |  |  |  | DLRLNDFSIVGSLPR [GlyRβ_Full_Positional_Scan_064]
8 | 1.12 norm. | 0.99 norm. | 0.88 norm. |  |  |  | CLRSNDFSIVGSLPR [GlyRβ_Full_Positional_Scan_017]
9 |  |  |  | 0.82 norm. | 0.49 norm. | 0.84 norm. | DLRSNDFSIVGSLPE [GlyRβ_Full_Positional_Scan_291]
10 |  |  |  | 1.08 norm. | 1.16 norm. | 1.02 norm. | DLRSNDFSIVGSHPR [GlyRβ_Full_Positional_Scan_253]
11 | 1.01 norm. | 1.37 norm. | 1.21 norm. |  |  |  | DLHSNDFSIVGSLPR [GlyRβ_Full_Positional_Scan_053]
12 | 1.15 norm. | 1.28 norm. | 1 norm. |  |  |  | NLRSNDFSIVGSLPR [GlyRβ_Full_Positional_Scan_019]
13 | 1.03 norm. | 0.32 norm. | 0.94 norm. |  |  |  | KLRSNDFSIVGSLPR [GlyRβ_Full_Positional_Scan_014]
14 |  |  |  | 0.6 norm. | 0.44 norm. | 0.82 norm. | DLRSNDFSIVGSLGR [GlyRβ_Full_Positional_Scan_262]
15 | 0.92 norm. | 1.05 norm. | 0.94 norm. |  |  |  | DLRKNDFSIVGSLPR [GlyRβ_Full_Positional_Scan_074]
16 | 0.48 norm. | 0.32 norm. | 0.53 norm. |  |  |  | DLRSNDASIVGSLPR [GlyRβ_Full_Positional_Scan_121, GlyR β 414-428 variant F420A]
17 |  |  |  | 0.84 norm. | 1.4 norm. | 1.12 norm. | DLRSNDFSIVGQLPR [GlyRβ_Full_Positional_Scan_240]
18 | 1.01 norm. | 0.95 norm. | 1.04 norm. |  |  |  | DARSNDFSIVGSLPR [GlyRβ_Full_Positional_Scan_021]
19 | 0.67 norm. | 0.53 norm. | 0.63 norm. |  |  |  | DLRSNDCSIVGSLPR [GlyRβ_Full_Positional_Scan_137, GlyR β 414-428 variant F420C]
20 |  |  |  | 0.53 norm. | 0.41 norm. | 0.77 norm. | DLRSNDFSIVGSLQR [GlyRβ_Full_Positional_Scan_280]
21 | 0.32 norm. | 0.16 norm. | 0.35 norm. |  |  |  | DLRSNDFSIVWSLPR [GlyRβ_Full_Positional_Scan_208, GlyR β 414-428 variant G424W]
22 | 0.65 norm. | 0.24 norm. | 0.92 norm. |  |  |  | DLRSNDFKIVGSLPR [GlyRβ_Full_Positional_Scan_154, GlyR β 414-428 variant S421K]
23 | 0.89 norm. | 0.68 norm. | 0.76 norm. |  |  |  | DLRSYDFSIVGSLPR [GlyRβ_Full_Positional_Scan_089]

Further lines, the sequence ahead of its results:

Row | Sequence | gephE Binding Intensity [norm.] (gephE; [1]) | Native geph Binding Intensity [norm.] (native geph; [2]) | Fl-geph Binding Intensity [norm.] (FL-geph; [3]) | gephE Binding Intensity [norm.] (gephE; [4]) | Native geph Binding Intensity [norm.] (native geph; [5]) | Fl-geph Binding Intensity [norm.] (FL-geph; [4])
24 | DERSNDFSIVGSLPR [GlyRβ_Full_Positional_Scan_031] | 0.98 norm. | 0.92 norm. | 1.01 norm. |  |  | 
25 | DLRQNDFSIVGSLPR [GlyRβ_Full_Positional_Scan_080] | 0.89 norm. | 1.04 norm. | 0.98 norm. |  |  | 
26 | DLRSNDFSIMGSLPR [GlyRβ_Full_Positional_Scan_198, GlyR β 414-428 variant V423M] | 0.44 norm. | 0.38 norm. | 0.86 norm. |  |  | 
27 | DLRSNDFSIVGSLPQ [GlyRβ_Full_Positional_Scan_300] |  |  |  | 1.02 norm. | 1.41 norm. | 1.33 norm.
28 | DLRSNDFSIVGSLPC [GlyRβ_Full_Positional_Scan_297] |  |  |  | 0.83 norm. | 0.97 norm. | 1.04 norm.
29 | DLRSNDFSIVGSLHR [GlyRβ_Full_Positional_Scan_273] |  |  |  | 0.62 norm. | 0.55 norm. | 1.08 norm.
30 | DRRSNDFSIVGSLPR [GlyRβ_Full_Positional_Scan_032] | 0.9 norm. | 0.66 norm. | 0.96 norm. |  |  | 
31 | DLVSNDFSIVGSLPR [GlyRβ_Full_Positional_Scan_046] | 0.94 norm. | 1.47 norm. | 1.27 norm. |  |  | 
32 | DLFSNDFSIVGSLPR [GlyRβ_Full_Positional_Scan_047] | 0.89 norm. | 1.18 norm. | 1.29 norm. |  |  | 
33 | DLRSNDFQIVGSLPR [GlyRβ_Full_Positional_Scan_160, GlyR β 414-428 variant S421Q] | 0.66 norm. | 0.47 norm. | 0.9 norm. |  |  | 
34 | DLRSNDFSIVGSLRR [GlyRβ_Full_Positional_Scan_272] |  |  |  | 0.59 norm. | 0.25 norm. | 0.93 norm.
35 | DLRSNLFSIVGSLPR [GlyRβ_Full_Positional_Scan_104] | 0.78 norm. | 0.37 norm. | 0.9 norm. |  |  | 
36 | DLRSNDFSIHGSLPR [GlyRβ_Full_Positional_Scan_193, GlyR β 414-428 variant V423H] | 0.32 norm. | 0.2 norm. | 0.46 norm. |  |  | 
37 | ELRSNDFSIVGSLPR [GlyRβ_Full_Positional_Scan_011] | 1.1 norm. | 0.97 norm. | 0.94 norm. |  |  | 
38 | DLRSNDHSIVGSLPR [GlyRβ_Full_Positional_Scan_133, GlyR β 414-428 variant F420H] | 0.57 norm. | 0.44 norm. | 0.61 norm. |  |  | 
39 | DLRSNDFSIVGSLPR [GlyRβ_Full_Positional_Scan_235] |  |  |  | 1 norm. | 1 norm. | 1 norm.
40 | DLRSVDFSIVGSLPR [GlyRβ_Full_Positional_Scan_086] | 0.84 norm. | 0.72 norm. | 0.83 norm. |  |  | 
41 | DLRSNDFSIVGYLPR [GlyRβ_Full_Positional_Scan_229] |  |  |  | 0.53 norm. | 0.31 norm. | 0.59 norm.
42 | DLRSNDFSIVASLPR [GlyRβ_Full_Positional_Scan_201, GlyR β 414-428 variant G424A] | 0.34 norm. | 0.18 norm. | 0.56 norm. |  |  | 
43 | DLQSNDFSIVGSLPR [GlyRβ_Full_Positional_Scan_060] | 0.91 norm. | 1.3 norm. | 1.06 norm. |  |  | 
